Results published in ChEMBL document CHEMBL5034036, “Aryloxy Pivaloyloxymethyl Prodrugs as Nucleoside Monophosphate Prodrugs” (J Med Chem, 2021).

Legend:
[1] = tested on: MCF7; test: Cytotoxicity against human MCF7 cells assessed as inhibition of cell proliferation measured after 24 hrs by MTT assay; format: functional, cell-based; details: MCF7, 24 h
[2] = tested on: A549; test: Cytotoxicity against human A549 cells after 48 hrs measured by MTT assay; format: functional, cell-based; details: A549, 48 h
[3] = tested on: A549; test: Cytotoxicity against human A549 cells after 24 hrs measured by MTT assay; format: functional, cell-based; details: A549, 24 h
[4] = tested on: MCF7; test: Cytotoxicity against human MCF7 cells assessed as inhibition of cell proliferation measured after 48 hrs by MTT assay; format: functional, cell-based; details: MCF7, 48 h
[5] = Serum stability of the compound in human serum assessed as half life measured by 31P-NMR analysis; format: ADME, cell-free
[6] = Drug metabolism in human serum assessed as metabolite B formation by 31P-NMR analysis; format: ADME, cell-free
[7] = Drug metabolism assessed as recombinant carboxypeptidase Y-mediated metabolite formation measured measured by 31P-NMR analysis; format: ADME; details: saccharomyces cerevisiae
[8] = target: T1, Liver carboxylesterase (Sus scrofa, UniProt Q29550); test: Stability in porcine liver esterase assessed as intact compound measured by NMR analysis; format: ADME; details: pig
T1 sequence (Q29550 whole entry): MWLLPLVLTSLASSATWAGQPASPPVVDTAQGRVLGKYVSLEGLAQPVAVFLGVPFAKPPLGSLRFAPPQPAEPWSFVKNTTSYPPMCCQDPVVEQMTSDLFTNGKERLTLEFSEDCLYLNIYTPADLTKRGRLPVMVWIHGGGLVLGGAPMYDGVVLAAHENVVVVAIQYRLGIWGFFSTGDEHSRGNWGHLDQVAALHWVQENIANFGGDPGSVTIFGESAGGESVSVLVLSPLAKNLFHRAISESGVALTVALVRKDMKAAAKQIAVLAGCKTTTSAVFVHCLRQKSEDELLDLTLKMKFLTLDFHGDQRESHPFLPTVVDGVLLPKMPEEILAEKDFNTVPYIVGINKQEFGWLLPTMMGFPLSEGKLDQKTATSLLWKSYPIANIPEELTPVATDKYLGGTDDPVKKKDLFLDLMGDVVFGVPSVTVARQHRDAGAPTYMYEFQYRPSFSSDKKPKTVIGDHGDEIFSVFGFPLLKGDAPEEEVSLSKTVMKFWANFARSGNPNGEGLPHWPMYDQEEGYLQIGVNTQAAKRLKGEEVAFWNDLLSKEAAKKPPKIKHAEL

In the case of `O=c1[nH]c(=O)n([C@H]2C[C@H](O)[C@@H](CO)O2)cc1F` [FLOXURIDINE], the IC50 [1] is reported as over 100 µM, the IC50 [2] is reported as over 100 µM and the IC50 [3] is reported as over 100 µM. For the same molecule, the IC50 [4] was 46.9 µM.

With `CC(C)(C)C(=O)OCOP(=O)(OC[C@H]1O[C@@H](n2cc(F)c(=O)[nH]c2=O)C[C@@H]1O)Oc1cccc2ccccc12` (stereo partly drawn) the IC50 [1] was 28.8 µM, the IC50 [2] was 34.5 µM and the IC50 [3] was 52.5 µM. It also gave an IC50 [4] of 35.5 µM.

Molecule `COC(=O)[C@H](C)NP(=O)(OC[C@H]1O[C@@H](n2cc(F)c(=O)[nH]c2=O)C[C@@H]1O)Oc1ccccc1` (stereo partly drawn) has an IC50 [1] of over 100 µM, an IC50 [2] of 36 µM and an IC50 [3] of 69.5 µM. The IC50 [4] was 84.8 µM.

With `CC(C)(C)C(=O)OCOP(=O)(OC[C@H]1O[C@@H](n2cc(F)c(=O)[nH]c2=O)C[C@@H]1O)Oc1ccccc1` (stereo partly drawn) the IC50 [1] was 63.6 µM, the half-life [5] was at least 12 h and the IC50 [4] was 13.1 µM. For the same molecule, the Drug metabolism [6] was “Metabolite_Detected”, the Drug metabolism [7] was “Metabolite_Notdetected” and the Stability [8] was “Stable”.
